Source: US8119819B2 (Chugai Seiyaku Kabushiki Kaisha, priority 2001, dated 2012)

Key:
[1] = biological target: T1, malonyl-CoA decarboxylase prepared from rat heart (Rattus norvegicus, UniProt Q920F5); test: In Vitro MCD inhibitory assay (spectrophotometric, 96 well); format: biochemical; settings: read-out: IC50 of the MCD inhibitors
T1 construct: malonyl-CoA decarboxylase prepared from rat heart; from tissue; host or cells: rat heart
T1 sequence (Q920F5 39-492): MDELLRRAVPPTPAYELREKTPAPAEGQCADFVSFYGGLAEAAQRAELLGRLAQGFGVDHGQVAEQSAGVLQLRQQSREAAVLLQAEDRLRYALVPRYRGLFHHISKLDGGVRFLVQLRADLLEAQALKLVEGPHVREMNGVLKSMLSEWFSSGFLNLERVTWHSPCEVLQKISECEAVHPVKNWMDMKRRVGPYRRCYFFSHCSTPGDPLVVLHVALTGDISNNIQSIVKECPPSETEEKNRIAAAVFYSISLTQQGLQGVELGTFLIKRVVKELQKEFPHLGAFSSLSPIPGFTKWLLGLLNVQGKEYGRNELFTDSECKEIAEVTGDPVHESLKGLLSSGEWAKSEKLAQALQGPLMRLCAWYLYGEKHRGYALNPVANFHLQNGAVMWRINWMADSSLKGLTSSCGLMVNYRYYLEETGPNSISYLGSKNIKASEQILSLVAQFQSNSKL
Method: The following reagents are added into a 96 well titer plate: Tris-HCl buffer, 20 μL; DTE, 10 μL; 1-malate, 20 μL; NAD, 10 μL; NADH, 25 μL; water, 80 μL; malic dehydrogenase, 5 μL. The contents are mixed and incubated for 2 min followed by the addition of 5 μL of citrate synthase.

[2] = test system: human breast cancer cells; settings: cited from earlier work

SMILES	IC50 [1]	malonyl-CoA level ([2]; breast carcinoma cells)	antitumor activity ([2]; human breast cancer cells and xenografts)
CC(C)N(C(=O)C1=NOC(C(O)(C(F)(F)F)C(F)(F)F)C1)C(C)C (stereo not drawn) [Example 8-3-3]	0.127 µM		
OC(C1CC(N2CCCC2)=NO1)(C(F)(F)F)C(F)(F)F (stereo not drawn) [Example 9-2, 1,1,1,3,3,3-hexafluoro-2-(3-pyrrolidin-1-4,5-dihydroisoxazol-5-yl)propan-2-ol]	3.71 µM		
O=CN(Cc1ccncc1)c1ncc(C(O)(C(F)(F)F)C(F)(F)F)s1 [Example 1-4, pyridin-4-yl methyl {5-[2,2,2-trifluoro-1-hydroxy-1-(trifluoromethyl)ethyl]-1,3-thiazol-2-yl}formamide]	0.463 µM		
O=S(=O)(Nc1ncc(C(O)(C(F)(F)F)C(F)(F)F)s1)c1ccc(Cl)cc1 [Example 3, 4-chloro-N-{5-[2,2,2,-trifluoro-1-hydroxy-1-(trifluoromethyl)ethyl]-1,3-thiazol-2-yl}benzenesulfonamide]	0.124 µM		
CCCCN(C(=O)NCC)c1ncc(C(O)(C(F)(F)F)C(F)(F)F)s1 [Example 1-3-1, N-butyl-N′-ethyl-N-{5-[2,2,2-trifluoro-1-hydroxy-1-(trifluoromethyl)ethyl]-1,3-thiazol-2-yl}urea]	0.213 µM		
CCCCCCCCCCCCCCOc1ccc(C(=O)O)o1 [TOFA, 5-(tetradecyloxy)-2-furoic acid]		60 % of the control	does not show any antitumor activity
CN(CC#CC(O)(C(F)(F)F)C(F)(F)F)C(=O)CCc1ccccc1 [Example 7-1, N-methyl-3-phenyl-N-[5,5,5-trifluoro-4-hydroxy-4-(trifluoromethyl)pent-2-ynyl]propanamide]	0.739 µM		
Cc1ccc(C2=NOC(C(O)(C(F)(F)F)C(F)(F)F)C2)cc1 (stereo not drawn) [Example 11-1, 1,1,1,3,3,3-hexafluoro-2-[3-(4-methylphenyl)-4,5-dihydroisoxazol-5-yl]propan-2-ol]	0.388 µM		
